The supplement of paper PMC10307832

What was measured:
Assay in all cases: relative viability (nuclei count vs DMSO), 5 days (fraction); higher = more cells survive
Palbociclib + Foretinib = compound: CC(=O)c1c(C)c2cnc(Nc3ccc(N4CCNCC4)cn3)nc2n(C2CCCC2)c1=O [Palbociclib] + COc1cc2c(Oc3ccc(NC(=O)C4(C(=O)Nc5ccc(F)cc5)CC4)cc3F)ccnc2cc1OCCCN1CCOCC1 [Foretinib] (partner 0.25 µM)
Summary of the method: (§1)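 Lung cancer cell lines in 1536-well plates got either a single drug or a fixed anchor-drug dose together with five library-drug doses (not always all listed) in √10 steps, by pin tool, on the day after seeding. Nuclei were counted after 5 days, and relative viability is the treated-to-vehicle ratio of nuclei counts. Values are medians of duplicate plates.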

Palbociclib + Pemetrexed = compound: CC(=O)c1c(C)c2cnc(Nc3ccc(N4CCNCC4)cn3)nc2n(C2CCCC2)c1=O [Palbociclib] + Nc1nc2[nH]cc(CCc3ccc(C(=O)N[C@@H](CCC(=O)O)C(=O)O)cc3)c2c(=O)[nH]1 [Pemetrexed] (partner 0.2 µM)
Summary of the method: as §1

Palbociclib + Vorinostat = compound: CC(=O)c1c(C)c2cnc(Nc3ccc(N4CCNCC4)cn3)nc2n(C2CCCC2)c1=O [Palbociclib] + O=C(CCCCCCC(=O)Nc1ccccc1)NO [Vorinostat] (partner 1 µM)
Summary of the method: as §1

Row | Cell Line | relative viability (Palbociclib + Foretinib; first compound 0.01 µM) | relative viability (Palbociclib + Foretinib; first compound 0.03162 µM) | relative viability (Palbociclib + Foretinib; first compound 0.1 µM) | relative viability (Palbociclib + Foretinib; first compound 0.3162 µM) | relative viability (Palbociclib + Foretinib; first compound 1 µM) | relative viability (Palbociclib + Pemetrexed; first compound 0.01 µM) | relative viability (Palbociclib + Pemetrexed; first compound 0.03162 µM) | relative viability (Palbociclib + Pemetrexed; first compound 0.1 µM) | relative viability (Palbociclib + Pemetrexed; first compound 0.3162 µM) | relative viability (Palbociclib + Pemetrexed; first compound 1 µM) | relative viability (Palbociclib + Vorinostat; first compound 0.01 µM) | relative viability (Palbociclib + Vorinostat; first compound 0.03162 µM) | relative viability (Palbociclib + Vorinostat; first compound 0.1 µM) | relative viability (Palbociclib + Vorinostat; first compound 0.3162 µM) | relative viability (Palbociclib + Vorinostat; first compound 1 µM)
1 | NCI-H2342 | 0.986 | 0.974 | 0.749 | 0.995 | 0.662 | 0.766 | 0.691 | 0.861 | 0.747 | 0.556 | 0.713 | 0.63 | 0.895 | 0.638 | 0.585
2 | BEN | 0.729 | 0.422 | 0.607 | 0.556 | 0.376 | 0.894 | 0.596 | 0.609 | 0.585 | 0.38 | 0.568 | 0.542 | 0.509 | 0.58 | 0.517
3 | NCI-H520 | 0.837 | 0.563 | 0.522 | 0.551 | 0.373 | 0.636 | 0.573 | 0.554 | 0.331 | 0.267 | 0.728 | 0.57 | 0.565 | 0.47 | 0.372
4 | HCC-78 | 0.54 | 0.453 | 0.481 | 0.509 | 0.364 | 0.894 | 0.88 | 0.935 | 0.942 | 0.943 | 0.502 | 0.38 | 0.415 | 0.418 | 0.299
5 | NCI-H2009 | 1.2 | 1 | 0.998 | 0.728 | 0.495 | 1.04 | 0.925 | 0.913 | 0.72 | 0.408 | 0.716 | 0.677 | 0.69 | 0.53 | 0.295
6 | NCI-H1650 | 1.3 | 0.808 | 0.954 | 0.934 | 0.65 | 0.373 | 0.316 | 0.302 | 0.293 | 0.231 | 0.607 | 0.558 | 0.523 | 0.39 | 0.31
7 | NCI-H2085 | 1.03 | 0.875 | 0.744 | 0.599 | 0.534 | 0.823 | 0.798 | 0.752 | 0.6 | 0.485 | 0.816 | 0.786 | 0.748 | 0.63 | 0.383
8 | LOU-NH91 | 0.957 | 0.86 | 0.678 | 0.646 | 0.533 | 0.384 | 0.396 | 0.462 | 0.492 | 0.439 | 1.02 | 0.623 | 0.695 | 0.675 | 0.673
9 | NCI-H1734 | 0.831 | 0.683 | 0.608 | 0.686 | 0.503 | 0.423 | 0.466 | 0.404 | 0.407 | 0.4 | 0.731 | 0.459 | 0.619 | 0.649 | 0.48
10 | HARA | 0.828 | – | 0.763 | 0.534 | 0.332 | 0.253 | 0.265 | 0.274 | 0.262 | 0.212 | 0.446 | – | 0.384 | 0.608 | 0.511
11 | NCI-H2087 | 0.951 | – | 0.838 | 0.631 | 0.47 | 0.683 | 0.664 | 0.621 | 0.537 | 0.393 | 0.365 | 0.53 | 0.602 | 0.379 | 0.188
12 | COR-L 105 | 0.841 | 0.826 | 0.992 | 0.595 | 0.449 | 1.21 | 0.802 | 0.778 | 0.697 | 0.47 | 0.9 | 0.887 | 0.612 | 0.611 | 0.482
13 | CAL-12T | 1.01 | 0.898 | 0.901 | 0.791 | 0.674 | 1.14 | 1.1 | 0.924 | 0.672 | 0.637 | 0.781 | 0.747 | 0.595 | 0.581 | 0.505
14 | SK-MES-1 | 1.09 | 0.834 | 0.781 | 0.687 | 0.502 | 0.857 | 0.802 | 0.665 | 0.596 | 0.363 | 1.08 | 0.902 | 0.735 | 0.763 | 0.395
15 | SW 1573 | 0.867 | 1 | 0.862 | 0.742 | 0.785 | 0.773 | 0.729 | 0.646 | 0.681 | 0.461 | 0.752 | 0.251 | 0.51 | 0.673 | 0.546
16 | NCI-H2023 | 0.929 | 0.523 | 0.556 | 0.474 | 0.322 | 0.203 | 0.188 | 0.169 | 0.174 | 0.142 | 0.721 | 0.281 | 0.54 | 0.515 | 0.303
17 | NCI-H1651 | 0.882 | 0.819 | 0.779 | 0.747 | 0.613 | 0.572 | 0.563 | 0.562 | 0.511 | 0.394 | 0.572 | 0.523 | 0.591 | 0.529 | 0.485
18 | EMC-BAC-2 | 1 | 0.931 | 0.804 | 0.821 | 0.61 | 0.449 | 0.476 | 0.427 | 0.417 | 0.428 | 0.461 | 0.39 | 0.379 | 0.376 | 0.308
19 | NCI-H1993 | 0.815 | 0.633 | 0.671 | 0.627 | 0.52 | 0.681 | 0.649 | 0.482 | 0.512 | 0.54 | 0.8 | 0.539 | 0.625 | 0.644 | 0.65
20 | UMC-11 | 1.01 | 0.86 | 0.698 | 0.459 | 0.275 | 0.795 | 0.726 | 0.594 | 0.473 | 0.308 | 0.308 | 0.42 | 0.369 | 0.312 | 0.242
21 | LXF-289 | 0.977 | 0.926 | 0.955 | 0.896 | 0.828 | 0.887 | 0.733 | 0.793 | 0.793 | 0.681 | 0.77 | 0.268 | 0.66 | 0.782 | 0.672
22 | NCI-H3122 | 0.854 | 0.936 | 0.892 | 0.7 | 0.553 | 0.205 | 0.184 | 0.192 | 0.186 | 0.188 | 0.931 | 0.632 | 0.879 | 0.703 | 0.613
23 | NCI-H23 | 0.954 | – | 1.11 | 0.962 | 0.69 | 0.596 | 0.694 | 0.492 | 0.67 | 0.443 | 0.617 | 0.531 | 0.406 | 0.509 | 0.411
24 | NCI-H460 | 1.01 | 0.969 | 0.886 | 0.8 | 0.536 | 0.0576 | 0.0539 | 0.0631 | 0.0663 | 0.057 | 0.669 | 0.604 | 0.454 | 0.369 | 0.115
25 | LC-2-ad | 0.909 | – | 0.687 | 0.687 | 0.481 | 0.271 | 0.289 | 0.318 | 0.392 | 0.363 | 0.712 | 0.351 | 0.561 | 0.561 | 0.475
26 | HCC-827 | 1.03 | 0.951 | 0.999 | 0.977 | 0.734 | 0.228 | 0.251 | 0.257 | 0.261 | 0.243 | 0.863 | 0.65 | 0.787 | 0.636 | 0.598
